Each molecule was assayed on 786-O-Hif-Luc cells (luciferase gene driven by multiple HIF responsive elements) (assay: Luciferase Assay). Conditions: 24 h, 786-O-Hif-Luc cells, about 24 hours; read-out: Mean Luciferease EC50.
Type: cell-based
Description: A pool of infected cells were then selected against 2 μg/mL of puromycin (P8833, Sigma) for 10 days followed by limited dilution to select single clones.
Each concentration was tested in triplicate. After about 24 hours, luciferase activity was determined using ONE-Glo Luciferase Assay Reagent (E6110, Promega) following the manufacturer's recommended procedure. EC50 were calculated by using Dotmatics software.

Row | SMILES | EC50
1 | Cc1c(S(C)(=O)=O)ccc(Oc2cc(F)cc(F)c2)c1C#N [Compound 52, 6-(3,5-Difluorophenoxy)-2-methyl-3-(methylsulfonyl)benzonitrile] | 1000 nM
2 | N#Cc1cncc(Oc2ccc(S(=O)(=O)C(F)F)c3c2CC(F)(F)[C@H]3O)c1 [Compound 27, (S)-5-((7-((Difluoromethyl)sulfonyl)-2,2-difluoro-1-hydroxy-2,3-dihydro-1H-inden-4-yl)oxy)nicotinonitrile] | 160 nM
3 | CS(=N)(=O)c1ccc(Oc2cc(F)cc(F)c2)c2c1[C@H](O)C(F)(F)C2 (stereo partly drawn) [Compound 192, ((S)-7-(3,5-Difluorophenoxy)-2,2-difluoro-3-hydroxy-2,3-dihydro-1H-inden-4-yl)(imino)(methyl)-λ^6-sulfanone] | 280 nM
4 | CS(=O)(=O)c1ccc(Oc2cncc(Cl)c2)c2c1[C@H](O)C(F)(F)C2 [Compound 115, (S)-4-((5-Chloropyridin-3-yl)oxy)-2,2-difluoro-7-(methylsulfonyl)-2,3-dihydro-1H-inden-1-ol] | 300 nM
5 | N#Cc1cc(F)cc(Oc2ccc(S(=O)(=O)C(F)F)c(C#N)c2Cl)c1 [Compound 39, 2-Chloro-3-(3-cyano-5-fluorophenoxy)-6-((difluoromethyl)sulfonyl)benzonitrile] | 600 nM
6 | O=S(=O)(c1ccc(Oc2cccc3[nH]ncc23)c2c1C(O)C(F)(F)C2)C(F)(F)F (centres unmarked) [Compound 243] | 920 nM
7 | N#Cc1cncc(Oc2ccc(S(N)(=O)=O)c3c2CC(F)(F)[C@H]3O)c1 [Compound 253, (S)-7-((5-Cyanopyridin-3-yl)oxy)-2,2-difluoro-3-hydroxy-2,3-dihydro-1H-indene-4-sulfonamide] | 1080 nM
8 | O=Cc1c(S(=O)(=O)C(F)(F)F)ccc(Oc2cc(F)cc(Cl)c2)c1Br [Compound 101, 2-Bromo-3-(3-chloro-5-fluorophenoxy)-6-((trifluoromethyl)sulfonyl)benzaldehyde] | 320 nM
9 | N#Cc1cc(F)cc(Oc2ccc(S(=O)(=O)C(F)(F)F)c3c2[C@@H](N)C[C@H]3O)c1 (relative stereo) [Compound 279, 3-((cis-3-amino-1-hydroxy-7-((trifluoromethyl)sulfonyl)-2,3-dihydro-1H-inden-4-yl)oxy)-5-fluorobenzonitrile] | 5900 nM
10 | N#Cc1cncc(Oc2ccc(S(=O)(=O)C(F)(F)F)c3c2CCC3O)c1 (centres unmarked) [Compound 220, 5-((1-Hydroxy-7-((trifluoromethyl)sulfonyl)-2,3-dihydro-1H-inden-4-yl)oxy)nicotinonitrile] | 2100 nM
11 | O=S(=O)(CF)c1ccc(Oc2cc(F)cc(Cl)c2)c2c1[C@H](O)CC2 [Compound 61, (R)-4-(3-Chloro-5-fluorophenoxy)-7-((fluoromethyl)sulfonyl)-2,3-dihydro-1H-inden-1-ol] | 110 nM
12 | N#Cc1cccc(Oc2ccc(S(=O)(=O)C(F)(F)F)cc2Br)c1 [Compound 117, 3-(2-Bromo-4-((trifluoromethyl)sulfonyl)phenoxy)benzonitrile] | 3000 nM
13 | N#Cc1cccc(Oc2ccc(S(=O)(=O)C(F)F)c(C#N)c2Cl)c1 [Compound 40, 2-Chloro-3-(3-cyanophenoxy)-6-((difluoromethyl)sulfonyl)benzonitrile] | 1200 nM
14 | O=S(=O)(c1ccc(Oc2ccc(F)c3[nH]ncc23)c2c1[C@H](O)C(F)(F)C2)C(F)(F)F [Compound 266, (S)-2,2-difluoro-4-((7-fluoro-1H-indazol-4-yl)oxy)-7-((trifluoromethyl)sulfonyl)-2,3-dihydro-1H-inden-1-ol] | 30 nM
15 | Cc1cc(Oc2ccc(S(=O)(=O)C(F)F)c3c2CC(F)(F)[C@H]3O)ccc1F [Compound 198, (S)-7-((Difluoromethyl)sulfonyl)-2,2-difluoro-4-(4-fluoro-3-methylphenoxy)-2,3-dihydro-1H-inden-1-ol] | 290 nM

Second part, the molecule after the results:

Row | EC50 | SMILES
16 | 6500 nM | O=S(=O)(c1ccc(Oc2cc(F)cc(Cl)c2)c(Br)c1CNCc1ccccc1)C(F)(F)F [Compound 110, N-Benzyl-1-(2-bromo-3-(3-chloro-5-fluorophenoxy)-6-((trifluoromethyl)sulfonyl)phenyl)methanamine]
17 | 5400 nM | Cc1cc(S(=O)(=O)C(F)F)ccc1Oc1cc(F)cc(Cl)c1 [Compound 135, 1-(3-Chloro-5-fluoro-phenoxy)-4-(difluoromethylsulfonyl)-2-methyl-benzene]
18 | 3410 nM | O=S(=O)(c1ccc(Oc2cc(Cl)cc(Cl)c2)c(Br)c1)C(F)(F)F [Compound 172, 2-Bromo-1-(3,5-dichlorophenoxy)-4-((trifluoromethyl)sulfonyl)benzene]
19 | 3500 nM | O=S(=O)(c1ccc(Oc2ccc(F)c(Cl)c2)c2c1C(O)CC2)C(F)(F)F (centres unmarked) [Compound 218, 4-(3-Chloro-4-fluorophenoxy)-7-((trifluoromethyl)sulfonyl)-2,3-dihydro-1H-inden-1-ol]
20 | 420 nM | O=S(=O)(c1ccc(Oc2cncc(F)c2)c2c1[C@H](O)CC2)C(F)F [Compound 5, (R)-7-((difluoromethyl)sulfonyl)-4-((5-fluoropyridin-3-yl)oxy)-2,3-dihydro-1H-inden-1-ol]
21 | 2400 nM | Cc1c(Oc2cc(F)cc(Cl)c2)ccc(S(=O)(=O)C(F)(F)F)c1Br [Compound 140, 3-Bromo-1-(3-chloro-5-fluoro-phenoxy)-2-methyl-4-(trifluoromethylsulfonyl)benzene]
22 | 480 nM | Cc1c(Oc2cc(F)cc(C#N)c2)ccc(S(=O)(=O)C(F)(F)F)c1CO [Compound 146, 3-Fluoro-5-[3-(hydroxymethyl)-2-methyl-4-(trifluoromethylsulfonyl)phenoxy]benzonitrile]
23 | 12700 nM | CS(=N)(=O)c1ccc(Oc2cc(F)cc(F)c2)c2c1C(O)CC2 (centres unmarked) [Compound 190, (7-(3,5-Difluorophenoxy)-3-hydroxy-2,3-dihydro-1H-inden-4-yl)(imino)(methyl)-λ^6-sulfanone]
24 | 5600 nM | CCOC(=O)/C=C/c1c(S(=O)(=O)C(F)(F)F)ccc(Oc2cc(F)cc(C#N)c2)c1C [Compound 148, Ethyl (E)-3-(3-(3-cyano-5-fluorophenoxy)-2-methyl-6-((trifluoromethyl)sulfonyl)phenyl)acrylate]
25 | 18 nM | O=S(=O)(c1ccc(Oc2cncc(Cl)c2)c2c1[C@H](O)C(F)(F)C2)C(F)F [Compound 25, (S)-4-((5-chloropyridin-3-yl)oxy)-7-((difluoromethyl)sulfonyl)-2,2-difluoro-2,3-dihydro-1H-inden-1-ol]
26 | 1300 nM | CS(=O)(=O)c1ccc(Oc2cc(F)cc(C#N)c2)c2c1[C@H](O)[C@H](F)[C@@H]2O [Compound 296, 3-fluoro-5-[(1S,2R,3R)-2-fluoro-1,3-dihydroxy-7-methylsulfonyl-indan-4-yl]oxy-benzonitrile]
27 | 8900 nM | Cc1nnc(/C=C/c2c(S(=O)(=O)C(F)(F)F)ccc(Oc3cc(F)cc(C#N)c3)c2C)o1 [Compound 151, 3-Fluoro-5-[2-methyl-3-[(E)-2-(5-methyl-1,3,4-oxadiazol-2-yl)vinyl]-4-(trifluoromethylsulfonyl)phenoxy]benzonitrile]
28 | > 20000 nM | N#Cc1c(Oc2cc(F)cc(Cl)c2)ccc(S(=O)(=O)C(F)F)c1CO [Compound 35, 6-(3-Chloro-5-fluorophenoxy)-3-((difluoromethyl)sulfonyl)-2-(hydroxymethyl)benzonitrile]
29 | 490 nM | CS(=O)(=O)c1ccc(Oc2cc(F)cc(Cl)c2)c(C(F)F)c1C#N [Compound 92, 3-(3-Chloro-5-fluorophenoxy)-2-(difluoromethyl)-6-(methylsulfonyl)benzonitrile]
30 | 6 nM | O=S(=O)(CF)c1ccc(Oc2cc(F)cc(Cl)c2)c2c1[C@H](O)C(F)(F)C2 [Compound 65, (S)-4-(3-Chloro-5-fluorophenoxy)-2,2-difluoro-7-((fluoromethyl)sulfonyl)-2,3-dihydro-1H-inden-1-ol]
31 | 130 nM | N#Cc1cc(Oc2ccc(S(=O)(=O)C(F)F)c3c2CC(F)(F)[C@H]3O)ccc1F [Compound 200, (S)-5-((7-((Difluoromethyl)sulfonyl)-2,2-difluoro-1-hydroxy-2,3-dihydro-1H-inden-4-yl)oxy)-2-fluorobenzonitrile]

Same assay, conditions: 24 h, read-out: Mean Luciferease EC50

Row | SMILES | EC50
32 | N#Cc1cc(F)cc(Oc2ccc(S(=O)(=O)C(F)(F)F)c3c2CC(F)(F)[C@H]3N)c1 [Compound 290, 3-[(1S)-1-amino-2,2-difluoro-7-(trifluoromethylsulfonyl)indan-4-yl]oxy-5-fluoro-benzonitrile] | 170 nM
33 | CS(=O)(=O)c1ccc(Oc2cc(F)cc(C#N)c2)c2c1[C@H](O)[C@H](F)C2 [Compound 231, 3-Fluoro-5-(((1S,2R)-2-fluoro-1-hydroxy-7-(methylsulfonyl)-2,3-dihydro-1H-inden-4-yl)oxy)benzonitrile] | 36 nM
34 | [2H]C([2H])([2H])S(=O)(=O)c1ccc(Oc2cc(F)cc(C#N)c2)c2c1[C@]([2H])(O)C(F)(F)C2 [Compound 229] | 24 nM
35 | CS(=O)(=O)c1ccc(Oc2cc(F)cc(C#N)c2)c2c1[C@H](O)[C@H](F)[C@@H]2F [Compound 289, 3-[(1S,2S,3R)-2,3-difluoro-1-hydroxy-7-methylsulfonyl-indan-4-yl]oxy-5-fluoro-benzonitrile] | 4.2 nM

Continued, values first:

Row | EC50 | SMILES
36 | 240 nM | CS(=O)(=O)c1ccc(Oc2cc(F)cc(C#N)c2)c2c1[C@H](N)C(F)(F)C2 [Compound 165, 3-[(1S)-1-Amino-2,2-difluoro-7-methylsulfonyl-indan-4-yl]oxy-5-fluoro-benzonitrile]
37 | 470 nM | CS(=O)(=O)c1ccc(Oc2cc(F)cc(C#N)c2)c2c1[C@H](O)[C@@H](F)C2 [Compound 271, 3-fluoro-5-(((1S,2S)-2-fluoro-1-hydroxy-7-(methylsulfonyl)-2,3-dihydro-1H-inden-4-yl)oxy)benzonitrile]
38 | 49 nM | NS(=O)(=O)c1ccc(Oc2cc(F)cc(F)c2)c2c1[C@H](O)C(F)(F)C2 [Compound 256, (S)-7-(3,5-Difluorophenoxy)-2,2-difluoro-3-hydroxy-2,3-dihydro-1H-indene-4-sulfonamide]

— patent publication US10597366B2, “Aryl ethers and uses thereof” (Peloton Therapeutics, Inc., priority 2013, dated 2020)
